The structures appear in SMILES notation.

Here are results for 31 molecules from ChEMBL document CHEMBL4673183, “Hit-to-lead optimization of a benzene sulfonamide series for potential antileishmanial agents” (RSC Med Chem, 2020).

For data set [1], the system named is Peritoneal macrophage. Briefly: cells. The settings on record: Mus musculus, Swiss, 120 h, read-out: pIC50 (converted).
The nature of data set [2]: in vitro. Conditions: mouse, plasma.

As to `N#Cc1ccccc1S(=O)(=O)N(Cc1ccccc1)Cc1ccccc1`, the IC50 in data set [1] was over 64.6 µM.

For the molecule `COCCN(Cc1ccc(F)cc1)S(=O)(=O)c1cc(C#N)ccc1OC`, the IC50 in data set [1] was over 64.6 µM.

As for `COc1ccc(C(=O)O)cc1S(=O)(=O)N(Cc1ccccc1)Cc1ccccc1`, the IC50 in data set [1] is over 64.6 µM.

Regarding `CS(=O)(=O)c1ccccc1S(=O)(=O)N(Cc1ccccc1)Cc1ccccc1`, in data set [1], the IC50 was over 64.6 µM.

`COc1ccc(S(=O)(=O)N(Cc2ccccc2)Cc2ccccc2)cc1`: the IC50 in data set [1] was over 64.6 µM.

Turning to `COc1ccc(S(N)(=O)=O)cc1S(=O)(=O)N(Cc1ccccc1)Cc1ccccc1`, the IC50 in data set [1] was over 64.6 µM.

For the molecule `COc1ncccc1S(=O)(=O)N(Cc1ccccc1)Cc1ccccc1`, the IC50 in data set [1] is 64.6 µM.

In the case of `COc1ccc(OC)c(S(=O)(=O)N(Cc2ccc(F)cc2)c2ccc(F)cc2)c1`, the IC50 in data set [1] is over 64.6 µM.

In the case of `COc1ccc(C(N)=O)cc1S(=O)(=O)N(Cc1ccccc1)Cc1ccccc1`, the IC50 in data set [1] was over 64.6 µM.

As to `COCCOCN1CNc2cc(OC)c(S(=O)(=O)N(Cc3ccccc3)Cc3ccccc3)cc2S1(=O)=O`, the IC50 in data set [1] was over 64.6 µM.

Consider `COc1ccc(OC)c(S(=O)(=O)N(Cc2ccc(F)cc2)Cc2nc(C)no2)c1`, for which, in data set [1], the IC50 is over 64.6 µM.

In the case of `COc1ccc(OC)c(S(=O)(=O)N(Cc2ccccc2)Cc2ccccc2)c1`, the IC50 in data set [1] is over 64.6 µM.

Consider `COc1ccc(CN2CCOCC2)cc1S(=O)(=O)N(Cc1ccc(F)cc1)Cc1ccc(F)cc1`, for which the IC50 in data set [1] is over 64.6 µM.

Regarding `COc1ccc([S+](C)[O-])cc1S(=O)(=O)N(Cc1ccccc1)Cc1ccccc1` (stereo not drawn), the IC50 in data set [1] is over 64.6 µM.

For `COc1ccc(C(=O)N2CCOCC2)cc1S(=O)(=O)N(Cc1ccc(F)cc1)Cc1ccc(C(F)(F)F)nc1`, in data set [1], the IC50 was over 64.6 µM. Also, the amount remaining (commonly the share of the starting amount still present when the sample was taken) at 6 h in data set [2] came out at 22%.

As to `Cn1cccc(S(=O)(=O)N(Cc2ccc(F)cc2)Cc2ccc(F)cc2)c1=O`, in data set [1], the IC50 is 64.6 µM.

With `COc1ccc(N2CCOCC2)cc1S(=O)(=O)N(Cc1ccc(F)cc1)Cc1ccc(F)cc1`, the IC50 in data set [1] was over 64.6 µM.

As for `COc1ccc(C#N)cc1S(=O)(=O)N(Cc1ccc(F)cc1)C1CCOCC1`, the IC50 in data set [1] was over 64.6 µM.

On to `COc1ccc(C(=O)N2CCOCC2)cc1S(=O)(=O)N(Cc1ccc(F)cc1)CC(C)C`, for which the IC50 in data set [1] was over 64.6 µM.

Consider `COc1ccc(C(=O)NC2COC2)cc1S(=O)(=O)N(Cc1ccc(F)cc1)Cc1ccc(F)cc1`, for which the IC50 in data set [1] is over 64.6 µM.

Turning to `COc1ccc(C#N)cc1S(=O)(=O)N(Cc1ccccc1)Cc1cnc(C(F)(F)F)nc1`, the IC50 in data set [1] is over 64.6 µM.

Consider `COc1ccc(C#N)cc1S(=O)(=O)N(Cc1ccc(C(F)(F)F)nc1)Cc1ccc(C(F)(F)F)nc1`, for which the IC50 in data set [1] was over 64.6 µM.

`COc1ccc(C#N)cc1S(=O)(=O)N(Cc1ccccc1)Cc1ccccc1`: the IC50 in data set [1] was over 64.6 µM.

Take `COc1ccc(S(C)(=O)=O)cc1S(=O)(=O)N(Cc1ccc(F)cc1)Cc1ccc(F)cc1`: the IC50 in data set [1] is over 64.6 µM.

As to `COc1ccc(C(=O)N2CCOCC2)cc1S(=O)(=O)N(Cc1ccc(C(F)(F)F)nc1)CC(C)(C)C`, the IC50 in data set [1] is over 64.6 µM.

With `COc1ccc(C(=O)N2CCOCC2)cc1S(=O)(=O)N(Cc1ccccc1)Cc1cnc(C(F)(F)F)nc1`, the IC50 in data set [1] is over 64.6 µM. The same molecule yielded a share remaining at 6 h in data set [2] of 42%.

`COc1ccc(C(=O)N2CCOCC2)cc1S(=O)(=O)N(Cc1ccccc1)CC(C)(C)C`: in data set [1], the IC50 was over 64.6 µM.

As for `COc1ccc(OC)c(S(=O)(=O)N(Cc2ccc(F)cc2)Cc2cnc(OC)nc2OC)c1`, the IC50 in data set [1] is over 64.6 µM.

Take `O=S(=O)(c1cc(F)ccc1F)N(Cc1ccc(F)cc1)Cc1ccc(F)cc1`: the IC50 in data set [1] was over 64.6 µM.

On to `COc1ccccc1S(=O)(=O)N(Cc1ccccc1)Cc1ccccc1`, for which, in data set [1], the IC50 is over 64.6 µM.

On to `COCCN(Cc1ccc(F)cc1)S(=O)(=O)c1cc(C(=O)N2CCOCC2)ccc1OC`, for which, in data set [1], the IC50 is over 64.6 µM.
